Assay results taken from the OPERA property sets (Mansouri et al. 2018).

Row | SMILES | boiling point | melting point | log10 vapour pressure (mmHg) | log10 Henry constant (atm·m³/mol) | log10 Koa | log10 Koc (L/kg) | ready biodegradability | log10 biodegradation half-life (days)
1 | FC(F)(F)C(F)(F)C(F)(F)C(F)(F)C(F)(F)I | 94.4 °C | -50 °C |  |  |  |  |  | 
2 | C[Si]1(C)O[Si](C)(C)O[Si](C)(C)O[Si](C)(C)O[Si](C)(C)O[Si](C)(C)O[Si](C)(C)O[Si](C)(C)O1 | 290 °C | 31.5 °C | -2.54 |  |  |  |  | 
3 | CC1(C)[C@@H]2CC(=O)[C@@](C)(O)[C@H]1C2 |  | 38.5 °C |  |  |  |  |  | 
4 | CC/C=C/CCCCC | 148 °C |  |  |  |  |  |  | 
5 | COc1c(C[C@@H](O)C(C)C)c(=O)n(C)c2c(OC)cccc12 |  | 86.5 °C |  |  |  |  |  | 
6 | C/C=C/CC(C)C | 88.1 °C | -124 °C |  |  |  |  |  | 
7 | Clc1cccc(Cl)c1 | 173 °C | -24.8 °C | 0.332 | -2.58 | 4.12 | 2.58 | not readily biodegradable | 
8 | FC(F)(I)C(F)(F)I | 112 °C |  |  |  |  |  |  | 
9 | Brc1cccc(Oc2ccccc2)c1 |  |  |  |  | 7.36 |  |  | 
10 | C1C2C3C2C2C1C32 (centres undefined) | 112 °C |  |  |  |  |  |  | 
11 | CCc1ccc(OC)cc1 | 198 °C |  |  |  |  |  |  | 
12 | CCCCOC(=O)CC#N | 231 °C |  |  |  |  |  |  | 
13 | C[C@]12CCC(=O)C=C1CC[C@@H]1[C@@H]2CC[C@@]2(C)[C@H]1CC[C@]2(O)C(=O)CO |  | 215 °C |  |  |  |  |  | 
14 | CC(C)OP(=O)(OC(C)C)SCc1ccccc1 |  |  | -4.39 |  |  | 2.26 |  | 
15 | CCC(Br)C(=O)Cl (centres undefined) | 151 °C |  |  |  |  |  |  | 
16 | CCOC(=O)N(C)N=O |  |  | 0.0719 |  |  |  |  | 
17 | CCCOC(=O)CCC(=O)OCCC | 251 °C | -5.9 °C |  |  |  |  |  | 
18 | CCCCCCCCCCCCCc1ccccc1 | 346 °C | 10 °C | -4.9 |  |  |  |  | 
19 | CCCCCCCCCCCCCCCCCCO |  | 59.5 °C | -5.57 |  | 10.9 |  | readily biodegradable | 
20 | Cc1ccc(C)n1C | 171 °C |  |  |  |  |  |  | 
21 | COC(=O)c1ccccc1S(=O)(=O)NC(=O)N(C)c1nc(C)nc(OC)n1 |  | 141 °C | -9.41 | -13 |  | 1.72 |  | 
22 | C=Cc1ccc(O)cc1 |  | 73.5 °C | -1.85 |  |  |  |  | 

Row | SMILES | boiling point | melting point | log10 vapour pressure (mmHg) | log10 Henry constant (atm·m³/mol) | log10 Koa | log10 Koc (L/kg) | ready biodegradability | log10 biodegradation half-life (days)
23 | C1CCC2CCCCC2C1 (centres undefined) | 180 °C | -38.7 °C | 0.114 |  |  | 3.67 | not readily biodegradable | 
24 | CCNC(=O)NC(=O)/C(C#N)=N/OC |  | 160 °C | -5.95 |  |  | 2.09 |  | 
25 | CCC(C)CCC(C)O (centres undefined) | 170 °C | -61 °C |  |  |  |  |  | 
26 | ClCC(Cl)C(Cl)Cl (centres undefined) | 180 °C |  |  |  |  |  |  | 
27 | CC=CC(C)=O | 122 °C |  |  |  |  |  |  | 
28 | CNC(=O)Oc1cc(C)cc(C(C)C)c1 |  | 87 °C | -4.52 |  |  | 2.48 |  | 
29 | O=C(Cl)c1ccc(Cl)c(Cl)c1 | 242 °C | 25 °C |  |  |  |  |  | 
30 | FC(F)(F)C(F)(F)F | -78.1 °C | -101 °C | 4.4 | 1.31 |  |  |  | 
31 | CCNC(=O)COC(=O)c1ccccc1 |  | 106 °C |  |  |  |  |  | 
32 | CCCC(C)N (centres undefined) | 92 °C |  |  |  |  |  |  | 
33 | CCc1ccccc1CC | 184 °C | -31.2 °C | 0.0212 |  |  |  | not readily biodegradable | 
34 | C=CCCC(C)C | 85.3 °C |  |  |  |  |  |  | 
35 | CCCCCCOC(=O)CCCCC | 246 °C | -55 °C |  |  |  |  |  | 
36 | N#CC1=C(C#N)C(=O)C(Cl)=C(Cl)C1=O |  | 214 °C |  |  |  |  |  | 
37 | Cc1cc(C)cc(C(=O)N(NC(=O)c2ccccc2)C(C)(C)C)c1 |  | 206 °C |  |  |  |  |  | 
38 | CC1(C)CCCCC1O (centres undefined) | 177 °C | 8 °C |  |  |  |  |  | 
39 | CNC(=O)N(C)C | 232 °C | 75.5 °C |  |  |  |  |  | 
40 | CC(=O)O[C@H]1C[C@@]2(C)[C@@H](C[C@@H](O)[C@H]3[C@@]4(C)CC[C@@H](O)[C@@H](C)[C@@H]4CC[C@@]32C)/C1=C(\CCC=C(C)C)C(=O)O |  | 192 °C |  |  |  |  |  | 
41 | ClCc1ccc2ccccc2c1 |  | 48.5 °C |  |  |  |  |  | 
42 | O=C(O)c1cc([N+](=O)[O-])ccc1O |  | 230 °C |  |  |  |  |  | 
43 | CCCCCF | 62.8 °C | -120 °C | 2.27 |  |  |  |  | 
44 | O=C(Cl)CCCl | 144 °C |  |  |  |  |  |  | 

Row | SMILES | boiling point | melting point | log10 vapour pressure (mmHg) | log10 Henry constant (atm·m³/mol) | log10 Koa | log10 Koc (L/kg) | ready biodegradability | log10 biodegradation half-life (days)
45 | Nc1cccc2c1C(=O)c1cccc(N)c1C2=O |  | 319 °C |  |  |  |  |  | 
46 | C1OCOCO1 | 114 °C | 60.2 °C | 1.24 |  |  |  |  | 
47 | S=C([S-])[S-] |  | -30 °C |  |  |  |  |  | 
48 | O=C1C(O)=C(Cl)C(=O)c2ccccc21 |  | 216 °C |  |  |  |  |  | 
49 | C=C[Si](C)(C)C | 55 °C |  |  |  |  |  |  | 
50 | COc1cc([C@@H]2c3cc4c(cc3C(O[C@@H]3O[C@@H]5COC(c6cccs6)O[C@H]5[C@H](O)[C@H]3O)C3COC(=O)[C@@H]32)OCO4)cc(OC)c1O (some centres undefined) |  | 244 °C |  |  |  |  |  | 
51 | CC(C)(Oc1ccc(C2CC2(Cl)Cl)cc1)C(=O)O (centres undefined) |  | 115 °C |  |  |  |  |  | 
52 | C=CC=CCC | 73.5 °C |  | 2.11 |  |  |  |  | 
53 | C/C=C(C)/C=C/C=C(C)C | 188 °C |  |  |  |  |  |  | 
54 | C=C(C)C1CCC=C(C)C1 (centres undefined) | 176 °C |  |  |  |  |  |  | 
55 | NN1CCOCC1 | 166 °C |  |  |  |  |  |  | 
56 | CCCc1nccnc1C | 189 °C |  |  |  |  |  |  | 
57 | COC(=O)CC[N+](=O)[O-] |  |  |  |  |  |  | readily biodegradable | 
58 | CC(=O)OCOc1ccccc1C(N)=O |  | 92.5 °C |  |  |  |  |  | 
59 | C=CCNC(=O)NCC=C |  | 91.5 °C |  |  |  |  |  | 
60 | C1=Cc2ccccc2C1 | 182 °C | -1.8 °C | 0.0414 |  |  |  |  | 0.477
61 | CC12CCC(CC1=NO)C2(C)C (centres undefined) |  | 118 °C |  |  |  |  |  | 
62 | ClC1CCCC1 | 114 °C |  |  |  |  |  |  | 
63 | O=P(O)(O)c1ccccc1 |  | 164 °C |  |  |  |  |  | 
64 | Cc1ccc(-c2ccccc2)cc1 | 268 °C | 49.5 °C |  |  |  |  |  | 1.58
